What was measured:
BuChE from horse serum = BuChE from horse serum (Equus caballus, UniProt P81908); details: for IC50: read-out: IC50 value BuChE inhibitory activity, BuChE from horse serum, mean ± SD (n = 3)
Protocol: (§1) The anticholinesterase activity of the 3-arylcoumarin compounds was determined by the method of Ellman et al.[25] with slight modifications. AChE inhibitory activities were determined by AChE from electric eel (Macklin). BuChE inhibitory activities were determined by BuChE from horse serum (Aladdin). To a 10 ml tube, 2.65 ml of phosphate buffer solution (0.1 M, pH = 8.0), 100 µL of 5,5-dithiobis-2-nitrobenzoic acid (0.75 mM in 0.1 M phosphate buffer solution, pH = 8.0) were added sequentially, 50 µL AChE solution (0.2 U/mL in 0.1 M phosphate buffer solution, pH = 8.0), 100 µL of different concentrations of the sample solution, shaken well, and incubated at 37 °C for 5 min. Then 100 µL of substrate (1.5 mM in 0.1 M phosphate buffer solution, pH = 8.0) were added, shaken well, and incubated at 37 °C for 20 min. After the reaction was completed, 1 ml of sodium lauryl sulphate (4%, SDS in water) was added. […] Determination of the inhibitory activity of BuChE is similar. The sample blank group replaced the substrate with PBS, and the blank group replaced the sample solution with a solvent. The sample solution was set to five concentration gradients and the experiment was repeated three times. […] Cholinesterase inhibitory effect (%)=[A0−(A1−A2)]/A0×100% where A0 is the absorbance of blank group; A1 is the absorbance of sample group; A2 is the absorbance of sample blank group.

MAO-B = target: T1, MAO-B (Rattus norvegicus, UniProt P19643); assay: In vitro monoamine oxidase inhibitory activity (Holt method, crude enzyme from rat liver); type: biochemical; details: crude enzyme from Wistar rat liver; mean ± SD (n = 3)
T1 construct: The crude enzyme was extracted from the liver of 200–250 g of Wistar rats; from tissue; host or cells: Wistar rat liver, crude enzyme extract
T1 sequence (P19643 1-520): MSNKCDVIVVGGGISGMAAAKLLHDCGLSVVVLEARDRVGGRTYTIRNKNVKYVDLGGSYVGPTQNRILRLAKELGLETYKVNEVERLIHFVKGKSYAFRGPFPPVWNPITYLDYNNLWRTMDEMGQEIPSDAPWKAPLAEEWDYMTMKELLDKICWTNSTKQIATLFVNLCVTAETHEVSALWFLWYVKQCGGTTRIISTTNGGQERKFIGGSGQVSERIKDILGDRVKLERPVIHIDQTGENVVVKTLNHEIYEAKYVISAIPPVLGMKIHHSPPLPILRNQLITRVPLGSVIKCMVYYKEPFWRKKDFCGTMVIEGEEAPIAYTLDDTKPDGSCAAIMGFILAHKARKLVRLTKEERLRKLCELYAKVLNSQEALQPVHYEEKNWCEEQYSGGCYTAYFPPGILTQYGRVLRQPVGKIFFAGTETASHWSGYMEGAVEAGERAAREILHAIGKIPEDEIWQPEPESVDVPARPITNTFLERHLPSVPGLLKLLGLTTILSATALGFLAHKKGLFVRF
Protocol: The MAO inhibitory activity of the 3-arylcoumarin compounds was determined by the method of Holt et al.[26] with slight modifications. The crude enzyme was extracted from the liver of 200–250 g of Wistar rats according to literature methods. The crude enzyme protein content was determined by the Bradford/method using a Bradford Protein Assay Kit (Beyotime). Forty microlitres of enzyme solution and 40 µL of sample solution were added to a 96-well plate. The solution was then incubated at 37 °C for 20 min. One-twenty microlitres of the 4-(trifluoromethyl) benzylamine solution and 40 µL of the chromogenic agent (1 mmol/L vanillic acid, 0.5 mmol/L 4-aminoantipyrine, 4U/mL horseradish peroxidase, 0.2 M pH = 7.6 PBS constant volume) were added subsequently, and incubated at 37 °C for 90 min. The absorbance was measured at 490 nm using a microplate reader, and the inhibition rate of MAO and the IC50 value of each sample were calculated according to the formula. The control group replaced the sample solution with PBS (0.2 M, pH = 7.6), the positive control replaced the sample with the positive drug, and the blank group replaced the substrate with PBS, and each group was measured three times in parallel to average. Monoamineoxidase inhibitory effect (%)=[(AC−AB)−(AS−ASB)]/(AC−AB)×100% where AC is the absorbance of control group; AB is the absorbance of blank group; AS is the absorbance of sample group; ASB is the absorbance of sample blank group.
MAO plays an important role in neurotransmitter inactivation, and MAO dysfunction is considered to be the cause of many mental and neurological diseases. MAO plays an important role in AD pathology, and the progress of AD has a close correlation with MAO activity[35]^,[36]. All the synthesised compounds were evaluated for their MAO inhibitory activity in the way of Holt[26] by references. […] The MAO used in the experiment was self-made.

[1] = In vitro antioxidant activity, FRAP assay; details: FeSO4 as standard; mean ± SD (n = 3)
Protocol: The total antioxidant capacity of the 3-arylcoumarin compounds was measured by the FRAP (the Ferric Reducing Ability of Plasma) assay of Benzie et al.[29] with slight modifications. This method is based on the reduction of colourless Fe(III)-TPTZ(2,4,6-Tris(2-pyridyl)-s-triazine) complex to coloured Fe(II)-TPTZ complex by the compounds. FRAP working solution (300 mmol/L acetate buffer, 10 mmol/L TPTZ, 20 mmol/LFeCl3) was ready to use. A hundred microlitres of the sample solution was added to 3 ml of FRAP reagent and then incubated at 37 °C for 15 min. The experiments were repeated for three times. The absorbance was measured at 593 nm to clarify the changes. The standard curve was drawn with FeSO4 as standard material, and the regression equation was obtained. With 1.0 mmol/L FeSO4 as standard, the antioxidant activity of the sample is expressed in millimoles of […] required to achieve the same absorbance.

AChE from electric eel = AChE from electric eel (Electrophorus electricus, UniProt O42275); details: read-out: IC50 value AChE inhibitory activity, mean ± SD (n = 3)
Protocol: as §1

BuChE from horse serum, sequence (P81908 whole entry): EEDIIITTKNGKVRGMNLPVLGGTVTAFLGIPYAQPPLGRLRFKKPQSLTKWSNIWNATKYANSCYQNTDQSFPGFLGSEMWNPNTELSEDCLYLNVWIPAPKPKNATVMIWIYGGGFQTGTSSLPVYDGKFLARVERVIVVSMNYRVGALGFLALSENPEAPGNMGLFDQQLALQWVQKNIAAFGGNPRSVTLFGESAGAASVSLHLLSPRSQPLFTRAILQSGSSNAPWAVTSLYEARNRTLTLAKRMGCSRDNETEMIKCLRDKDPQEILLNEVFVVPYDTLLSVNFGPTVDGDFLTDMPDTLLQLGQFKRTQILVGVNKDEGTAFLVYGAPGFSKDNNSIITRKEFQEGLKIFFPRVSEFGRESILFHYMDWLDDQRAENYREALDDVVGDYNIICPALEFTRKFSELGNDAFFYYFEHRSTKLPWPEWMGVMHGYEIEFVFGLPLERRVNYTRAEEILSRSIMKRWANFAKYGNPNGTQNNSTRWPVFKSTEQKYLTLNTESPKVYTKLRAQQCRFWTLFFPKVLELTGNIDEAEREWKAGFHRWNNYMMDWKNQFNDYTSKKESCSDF
AChE from electric eel, sequence (O42275 24-633): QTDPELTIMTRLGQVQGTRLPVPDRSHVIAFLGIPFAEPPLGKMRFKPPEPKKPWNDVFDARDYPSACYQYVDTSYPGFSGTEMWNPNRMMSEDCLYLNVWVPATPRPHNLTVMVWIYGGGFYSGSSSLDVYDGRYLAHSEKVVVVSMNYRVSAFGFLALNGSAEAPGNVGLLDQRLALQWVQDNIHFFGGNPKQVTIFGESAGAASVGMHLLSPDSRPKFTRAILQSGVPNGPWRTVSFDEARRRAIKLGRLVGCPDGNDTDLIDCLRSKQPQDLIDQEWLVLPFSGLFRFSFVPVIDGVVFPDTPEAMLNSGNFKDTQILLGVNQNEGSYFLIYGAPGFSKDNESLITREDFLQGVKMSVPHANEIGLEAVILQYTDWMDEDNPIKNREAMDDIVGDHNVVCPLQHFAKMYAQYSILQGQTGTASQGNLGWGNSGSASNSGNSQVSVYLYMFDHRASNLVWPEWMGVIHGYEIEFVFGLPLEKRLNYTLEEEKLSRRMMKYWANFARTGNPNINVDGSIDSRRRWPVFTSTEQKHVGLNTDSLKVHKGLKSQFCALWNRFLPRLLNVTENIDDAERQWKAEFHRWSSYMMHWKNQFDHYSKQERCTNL

With O=c1oc2cc(O)ccc2cc1-c1ccccc1 [Compound 5] as the molecule, how does the “selectivity BuChE over AChE (in words)” value (BuChE from horse serum; BuChE vs AChE inhibition) read?
Its value is “selective BuChE inhibitory activity”.

What about the IC50 (BuChE from horse serum) of the same molecule?
Its IC50 is 14.4 ± 1.94 µM.

What about the IC50 (MAO-B) of the same molecule?
The IC50 was > 700 µM.

What about the “FRAP value Antioxidant activity” value [1] of the same molecule?
The value was 0.42 ± 0.01 mmol/g.

Which “FRAP value Antioxidant activity” value [1] does the source give for O=C1O[C@H]([C@@H](O)CO)C(O)=C1O [Ascorbic Acid, reference compound] here?
Its value is 3.79 ± 0.08 mmol/g.

For O=c1oc2ccccc2cc1-c1ccc(O)cc1 [Compound 1], which IC50 (BuChE from horse serum) is on record?
Its IC50 is 44.8 ± 2.35 µM.

What about the IC50 (AChE from electric eel) of the same molecule?
The IC50 was 78.5 ± 2.84 µM.

And the IC50 (MAO-B)?
The IC50 was > 700 µM.

And the “FRAP value Antioxidant activity” value [1]?
The value was 0.51 ± 0.09 mmol/g.

With COc1ccc2cc(-c3ccc(O)cc3)c(=O)oc2c1 [Compound 13] as the molecule, how does the IC50 (BuChE from horse serum) read?
Its IC50 is 70.7 ± 5.75 µM.

What about the IC50 (AChE from electric eel) of the same molecule?
The IC50 was 42.4 ± 3.16 µM.

What about the IC50 (MAO-B) of the same molecule?
Its IC50 is > 700 µM.

And the “FRAP value Antioxidant activity” value [1]?
Its value is 0.61 ± 0.11 mmol/g.

Which results are given for O=c1oc2cc(O)ccc2cc1-c1ccc(O)cc1 [Compound 4]?
IC50 (BuChE from horse serum): 34.7 ± 1.87 µM; IC50 (MAO-B): > 700 µM; FRAP value Antioxidant activity [1]: 7.73 ± 0.12 mmol/g

Which results are given for COc1ccc(-c2cc3ccc(O)cc3oc2=O)cc1 [Compound 9]?
IC50 (BuChE from horse serum): 30.1 ± 3.06 µM; IC50 (MAO-B): > 700 µM; FRAP value Antioxidant activity [1]: 0.67 ± 0.04 mmol/g

From paper PMC6374920, “Synthesis and biological evaluation of 3-arylcoumarins as potential anti-Alzheimer's disease agents” (Journal of Enzyme Inhibition and Medicinal Chemistry, 2019)
